From patent US4389343A, “Immunopotentiating peptides from thymus” (Hoffmann-La Roche Inc., priority 1981, dated 1983)
Where no end group is shown, it is not given here.

What was measured:
[1] = tested on: Candida albicans ATCC 10231; experiment: protective activity against opportunistic infections in immunosuppressed mice; assay type: in vivo; conditions: female ddY mice infected with Candida albicans 24 hours after last treatment
Procedure: The compounds of formula I were tested for protective activity against opportunistic infections in immunosuppressed mice. Female ddY mice (6 weeks old) weighing about 25 g were pretreated daily for eight days with 5-fluorouracil (5-FU) (25 mg/kg/day, i.p.) and with thymosin α1or with compounds of formula I (i.p.) at varying dosages. The mice were then infected with Candida albicans ATCC 10231 (1×10^5 cells or more) at 24 hours after the last treatment. One control group was administered 5-FU and saline solution and a second control group received neither 5-FU nor a thymic polypeptide prior to infection with Candida albicans.

[2] = isoelectric point by preparative isoelectric focusing; assay type: physicochemical
Procedure: It is preferred that the compound of formula II be separated conventionally from Thymosin Fraction 5 using preparative isoelectric focusing, with the proteins recovered therefrom being purified by HPLC. By such a procedure, for example, 1.2 grams of Thymosin Fraction 5 provided 16 mg of thymosin α1, 16 mg of thymosin β4 and 1 mg of the compound of formula II. The isoelectric point for the compound of formula II was pH 4.62.
Any reverse phase hydrophobic resin may be employed in a conventional manner in the HPLC isolation. Among such resins there are included, for example, a hydrocarbon (C8 to C18) on any inert matrix such as silica gel, glass, polysaccharides and the like, which matrix is inert to the eluting agent being employed. The preferred resin is a straight chain C18 hydrocarbon bonded to silica gel or glass beads. […]
A sample of thymosin Fraction 5 (1.2 g) was dissolved in 100 ml of 2% ampholine for separation in the pH range 4-6 and filtered through a 0.45 μm molecular pore filter. […] The focused gel was cut with a grid into 30 sections, each of which was eluted on a small column with 5 ml of H2 O. The pH of eluate was determined at 0° C. […] Fractions (0.7 ml) were collected every 2 min and aliquots (5 μl of a 1:25 dilution) of each aliquot analyzed by direct injection into the borate buffer line of the fluorescamine detector, because the automatic column monitoring was off-scale.

[3] = 4 μg/kg/day i.p. daily for eight days with 5-FU 25 mg/kg/day i.p.
[4] = 40 μg/kg/day i.p. daily for eight days with 5-FU 25 mg/kg/day i.p.
[5] = 0.4 μg/kg/day i.p. daily for eight days with 5-FU 25 mg/kg/day i.p.

Substance	Survivors at Day 8 [1, 3]	Survivors at Day 15 [1, 3]	Survivors at Day 8 [1, 4]	Survivors at Day 15 [1, 4]	Survivors at Day 8 [1, 5]	Survivors at Day 15 [1, 5]	isoelectric point [2] [pH]
Thymosin α1: acidic peptide containing 28 amino acid residues isolated from Thymosin Fraction 5, U.S. Pat. No. 4,079,127 (SDAAVDTSSEITTKDLKEKKEVVEEAEN; ends and bridges not checked; UniProt P01252 2-29, looked up)	7/10	6/10	7/10	7/10	–	–	–
Thymosin β4: peptide isolated from Thymosin Fraction 5 containing 44 amino acid residues	5/10	5/10	1/10	1/10	7/10	6/10	–
Thymosin β8: polypeptide isolated from calf thymus Fraction 5, 4,518 daltons, 39 amino acid residues, NH2-terminus acetyl alanine (ADKPDLGEINSFDKAKLKKTETQEKNTLPTKETIEQEKQ; thymosin beta-8 N-terminal acetyl; UniProt P21752 2-40, looked up, fragment)	–	–	–	–	–	–	4.62
Thymosin β9: polypeptide from fresh frozen calf thymus, identical to thymosin β8 plus --Ala--LysOH at the COOH-terminus, 4,717 daltons, 41 amino acids (ADKPDLGEINSFDKAKLKKTETQEKNTLPTKETIEQEKQAK; not fully specified; Thymosin beta-9; UniProt P21752 2-42, looked up)	–	–	–	–	–	–	5.14
